Experiments:
[1] = biological target: Human a Thrombin (Homo sapiens, UniProt P00734); test: Binding of PMSF to a freely mounted thrombin crystal by dripping on microdrops, X-ray crystallographic examination; conditions: 100 mM PMSF in isopropyl alcohol dripped on thrombin crystal; active center around Ser195; FIG. 4
From the text: A thrombin crystal was mounted on the free mounting system by means of a loop at a previously determined initial humidity of 93%. Under a microscope, surplus reservoir buffer was cautiously removed from the loop by means of a strip of filter paper. The stability and the consistency of the size of the crystal, respectively, were monitored by means of the video system.
Herein, a highly concentrated PMSF solution in an organic solvent was used.
Subsequently, the crystal was bombarded with individual drops (single shot mode) of the solution. The total volume dripped on approximately corresponded to the volume of the crystal, i.e. about 300 pl. […] Herein, the projection of the surface of the crystal was monitored after each dripping-on and it was waited until the surface remained uniform again before the next drop was applied. The individual parameters of the experiment can be seen in Table 1.
After completion of dripping-on, the crystal was moistened with PFPE oil (perfluoropolyether) and shock-frozen in liquid nitrogen. The X-ray crystallographic data record was recorded on a rotating copper anode. Data processing was conducted by means of the programs XDS and XSCALE, refinement and manual model construction was conducted by means of the programs CNX and O. The statistics of data collection, processing, and refinement are given in Table 2.

[2] = cited from earlier work
[3] = biological target: human α-thrombin (Homo sapiens, UniProt P00734); conditions: stated in brackets without method; inhibitor used with human α-thrombin; cited from earlier work

O=S(=O)(F)Cc1ccccc1 [PMSF, Phenylmethylsulfonyl Fluoride]
binding mode seen in the experimentally determined electron density [1]: covalent bond of the PMSF at Ser195

Cl.NCCc1ccc(S(=O)(=O)F)cc1 [Pefabloc SC, 4-(2-aminoethyl)-benzenesulfonyl-fluoride-hydrochloride]
stability in an aqueous system [2]: high stability in an aqueous system
Ki [3]: 6.5 µM
